These results are taken from ChEMBL document CHEMBL1201862, “PubChem BioAssay data set” (2004).

Each structure is given as a SMILES string. Where a name gives a salt, the structure may show the parent alone.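 Assay format: 96-well plates, 48-hour exposure. Abbreviation: GI50, concentration required for 50% inhibition of growth.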 Active and inactive are the calls of the source. Rule as the data show it: active = GI50 up to about 1.1 µM and inactive = higher.

Assay in all cases: NCI tumour cell line growth inhibition, 48 h
Test [1] deals with SR.
Test [2] has as its system K562.
Test [3] concerns NCI-H226.
Test [4] relates to HT-29.
For test [5], the system named is SF-539.
In test [6] the test system is MOLT-4.
For test [7], the system named is A498.
The subject of test [8] is LOX IMVI.
Test [9] concerns MDA-MB-231.
Test [10] deals with KM12.
Test [11] has as its system UO-31.
For test [12], the system named is HOP-92.
Test [13] has as its system EKVX.
The test system of test [14] is SK-OV-3.
Test [15] has as its system RXF 393.
Test [16] concerns T47D.
In test [17] the test system is OVCAR-5.
For test [18], the system named is SN12C.
In test [19] the test system is HOP-62.
The test system of test [20] is SK-MEL-2.

For the compound `COc1ccc(/C=C2\CCS(=O)(=O)c3ccccc3C2=O)cc1`, the GI50 in test [1] is 8.55 µM (inactive); in [2], 30.1 µM (inactive); in [3], 20.2 µM (inactive); in [4], 18.8 µM (inactive); in test [5], 21.1 µM (inactive); in [6], 18.1 µM (inactive). For the same compound, the GI50 in test [7] is 20.9 µM (inactive); in test [8] it was 20.4 µM (inactive); in [9], 24.6 µM (inactive); in test [10] it was 16.6 µM (inactive); in test [11], 19.7 µM (inactive); in test [12] it was 36 µM (inactive). Further, the GI50 in [13] was 19.1 µM (inactive); in test [14], 38.3 µM (inactive); in [15] it was 22.6 µM (inactive); in test [16] it was 22.7 µM (inactive); in [17], 26.7 µM (inactive); in test [18], 28.3 µM (inactive). The GI50 was 36.3 µM (inactive) in test [19] and 31.4 µM (inactive) in test [20].

With `Cc1cc(Cl)cc2c1NC(=O)C2(O)CC(=O)c1ccco1` (stereo not given), the GI50 in [1] was 0.506 µM (active); in test [2] it was 27.1 µM (inactive); in test [3], > 100 µM (inactive); in [4], > 79.6 µM (inactive); in [5], > 100 µM (inactive); in test [6], 0.92 µM (active). The GI50 in [7] is 62.7 µM (inactive); in test [8], > 42 µM (inactive); in test [9] it was 35.3 µM (inactive); in [10] it was > 75.9 µM (inactive); in test [11], > 100 µM (inactive); in [12], > 100 µM (inactive). Besides, the GI50 in [13] was > 100 µM (inactive); in test [14] it was > 100 µM (inactive); in test [15] it was 57 µM (inactive); in [16], > 100 µM (inactive); in [17], > 100 µM (inactive); in [18], > 85.1 µM (inactive). The GI50 in test [19] is > 100 µM (inactive); in test [20] it was > 85.9 µM (inactive).

On to `CCOC(=O)[C@@]12C[C@](/C=C/OC)(O[Si](C)(C)C)[C@@]13c1cc(OC)c(OC)cc1CCN3C(=O)C2O` (stereo not given in full), for which the GI50 in test [1], in test [2], in test [3], in [4], in test [5] and in test [6] was > 100 µM (inactive) each time. For the same compound, the GI50 in [7], in test [8], in test [9], in test [10], in [11] and in [12] was > 100 µM (inactive) each time. Also, the GI50 in [13], in [14], in test [15], in [16], in test [17] and in test [18] was > 100 µM (inactive) in each case. Further, the GI50 in [19] and in test [20] was > 100 µM (inactive) throughout.

For `c1ccc([C@H]2CN3CCSC3=N2)cc1` [LEVAMISOLE HYDROCHLORIDE], the GI50 in [1], in [2], in test [3], in test [4], in [5] and in [6] was > 100 µM (inactive) each time. Moreover, the GI50 in [7], in test [8], in test [9], in test [10], in test [11] and in test [12] was > 100 µM (inactive) each time. Besides, the GI50 in [13], in test [14], in [15], in [16], in [17] and in [18] was > 100 µM (inactive) in each case. In addition, the GI50 in test [19] and in test [20] was > 100 µM (inactive) in each case.
